Read-outs that look alike come from different tables or passages of the source.
Columns and labels:
[1] = tested on: human lung fibroblast (WI38); assay: In vitro cytotoxicity against human normal cell line (MTT); type: cell-based; conditions: for Average of Relative viability of cells (%): WI38; for IC50: mean ± SD, n = 3
Source text: (§1) The anticancer agent's selectivity for cancer cells is a critical consideration for any researcher, as it can decrease the molecule's adverse effects on normal human cells.

[2] = tested on: HePG2, MCF-7, Hela, PC3 cell lines; assay: Antitumor screening using MTT assay, statements across several cell lines; type: cell-based, human; conditions: HePG2, MCF-7, Hela, PC3
Source text: (§2) Hepatocellular carcinoma (HePG2), mammary gland breast cancer (MCF-7), epithelioid carcinoma cervix cancer (Hela), and human prostate cancer were included on the panel (PC3). […] The cell lines were obtained from the American Type Culture Collection (ATCC) through VACSERA, a Cairo-based holding firm for biological goods and vaccines.
(§3) The panel consisted of hepatocellular carcinoma (HePG2), mammary gland breast cancer (MCF-7), epithelioid carcinoma cervix cancer (Hela) and human prostate cancer (PC3). Human lung fibroblast (WI38) was used to assay the cytotoxicity effect on normal cell. The cell lines were obtained from ATCC via Holding company for biological products and vaccines (VACSERA), Cairo, Egypt. The cytotoxic activity was defined as the concentration of the compound that causes 50% growth inhibition compared with the growth of untreated cells.

[3] = tested on: mammary gland breast cancer (MCF-7); assay: Antitumor screening using MTT assay; conditions: for Average of Relative viability of cells (%): MCF7; for viability at 1.56 µM / viability at 3.125 µM / viability at 6.25 µM / viability at 12.5 µM / viability at 25 µM / viability at 50 µM / viability at 100 µM: MCF7, read-out: Average of Relative viability of cells (%)
Source text: as §2, §3

[4] = tested on: Hepatocellular carcinoma (HePG2); assay: Antitumor screening using MTT assay; type: cell-based, human; conditions: for IC50: mean ± SD, n = 3, read-out: In-vitro cytotoxicity IC50 (µM) HePG2; for viability at 1.56 µM / viability at 3.125 µM / viability at 6.25 µM / viability at 12.5 µM / viability at 25 µM / viability at 50 µM / viability at 100 µM: read-out: Average of Relative viability of cells (%)
[5] = tested on: epithelioid carcinoma cervix cancer (Hela); assay: Antitumor screening using MTT assay; conditions: for IC50: read-out: In-vitro cytotoxicity IC50 (µM) Hela; for viability at 1.56 µM / viability at 3.125 µM / viability at 6.25 µM / viability at 12.5 µM / viability at 25 µM / viability at 50 µM / viability at 100 µM: read-out: Average of Relative viability of cells (%)
Source text: as §2, §3

[6] = tested on: human prostate cancer (PC3); assay: Antitumor screening using MTT assay; conditions: for IC50: read-out: In-vitro cytotoxicity IC50 (µM) PC3; for viability at 1.56 µM / viability at 3.125 µM / viability at 6.25 µM / viability at 12.5 µM / viability at 25 µM / viability at 50 µM / viability at 100 µM: read-out: Average of Relative viability of cells (%)
Source text: as §2, §3

[7] = In vitro cytotoxicity against human normal cell line (MTT); type: cell-based; conditions: human, WI38 human lung fibroblast cells (normal cell line), WI38, read-out: Average of Relative viability of cells (%); for viability at 1.56 µM: Conc. 1.56 µM; for viability at 3.125 µM: Conc. 3.125 µM; for viability at 6.25 µM: Conc. 6.25 µM; for viability at 12.5 µM: Conc. 12.5 µM; for viability at 25 µM: Conc. 25 µM; for viability at 50 µM: Conc. 50 µM; for viability at 100 µM: Conc. 100 µM
Source text: as §1

[8] = Homo sapiens, WI-38, human normal cell line WI38
[9] = Homo sapiens, MCF7, read-out: In-vitro cytotoxicity IC50 (µM) MCF-7

Molecule: 2-(benzofuran-2-yl)-1-(4-methylpiperazin-1-yl)ethanethione [Compound 3]
- Average of Relative viability of cells (%) ([1]; Conc. 1.56 µM): 100%
- Average of Relative viability of cells (%) ([1]; Conc. 3.125 µM): 100%
- Average of Relative viability of cells (%) ([1]; Conc. 6.25 µM): 97.0%
- Average of Relative viability of cells (%) ([1]; Conc. 12.5 µM): 85.3%
- Average of Relative viability of cells (%) ([1]; Conc. 25 µM): 71.8%
- Average of Relative viability of cells (%) ([1]; Conc. 50 µM): 59.2%
- Average of Relative viability of cells (%) ([1]; Conc. 100 µM): 47.4%
- IC50 ([1]; human normal cell line WI38): 78.5 ± 3.8 µM
- anticancer activity towards the four / all assessed cell lines (grade) [2]: weak (51–100 (weak))
- Average of Relative viability of cells (%) ([3]; Conc. 1.56 µM): 100%
- Average of Relative viability of cells (%) ([3]; Conc. 3.125 µM): 100%
- Average of Relative viability of cells (%) ([3]; Conc. 6.25 µM): 94.7%
- Average of Relative viability of cells (%) ([3]; Conc. 12.5 µM): 72.4%
- Average of Relative viability of cells (%) ([3]; Conc. 25 µM): 61.3%
- Average of Relative viability of cells (%) ([3]; Conc. 50 µM): 47.6%
- Average of Relative viability of cells (%) ([3]; Conc. 100 µM): 33.9%
- IC50 ([3]; read-out: In-vitro cytotoxicity IC50 (µM) MCF-7, MCF-7, mean ± SD, n = 3): 45.1 ± 2.9 µM
- Average of Relative viability of cells (%) ([4]; Conc. 1.56 µM): 100%
- Average of Relative viability of cells (%) ([4]; Conc. 3.125 µM): 100%
- Average of Relative viability of cells (%) ([4]; Conc. 6.25 µM): 82.4%
- Average of Relative viability of cells (%) ([4]; Conc. 12.5 µM): 76.1%
- Average of Relative viability of cells (%) ([4]; Conc. 25 µM): 50.2%
- Average of Relative viability of cells (%) ([4]; Conc. 50 µM): 42.8%
- Average of Relative viability of cells (%) ([4]; Conc. 100 µM): 29.5%
- IC50 [4]: 34.8 ± 2.5 µM
- Average of Relative viability of cells (%) ([5]; Hela, Conc. 1.56 µM): 100%
- Average of Relative viability of cells (%) ([5]; Hela, Conc. 3.125 µM): 100%
- Average of Relative viability of cells (%) ([5]; Hela, Conc. 6.25 µM): 97.1%
- Average of Relative viability of cells (%) ([5]; Hela, Conc. 12.5 µM): 75.9%
- Average of Relative viability of cells (%) ([5]; Hela, Conc. 25 µM): 64.8%
- Average of Relative viability of cells (%) ([5]; Hela, Conc. 50 µM): 50.7%
- Average of Relative viability of cells (%) ([5]; Hela, Conc. 100 µM): 36.1%
- IC50 ([5]; Hela, mean ± SD, n = 3): 51.4 ± 3.1 µM
- Average of Relative viability of cells (%) ([6]; PC3, Conc. 1.56 µM): 100%
- Average of Relative viability of cells (%) ([6]; PC3, Conc. 3.125 µM): 100%
- Average of Relative viability of cells (%) ([6]; PC3, Conc. 6.25 µM): 100%
- Average of Relative viability of cells (%) ([6]; PC3, Conc. 12.5 µM): 92.8%
- Average of Relative viability of cells (%) ([6]; PC3, Conc. 25 µM): 71.9%
- Average of Relative viability of cells (%) ([6]; PC3, Conc. 50 µM): 59.5%
- Average of Relative viability of cells (%) ([6]; PC3, Conc. 100 µM): 37.5%
- IC50 ([6]; PC3, mean ± SD, n = 3): 65 ± 3.2 µM

Molecule: O=C(/C=C/N1CCCCC1)c1cc2ccccc2o1 [Compound 5, (E)-1-(benzofuran-2-yl)-3-(piperidin-1-yl)prop-2-en-1-one]
- IC50 [1, 8]: 64 ± 3.1 µM
- viability at 1.56 µM [7]: 100%
- viability at 3.125 µM [7]: 100%
- viability at 6.25 µM [7]: 100%
- viability at 12.5 µM [7]: 91.8%
- viability at 25 µM [7]: 72.3%
- viability at 50 µM [7]: 57.1%
- viability at 100 µM [7]: 38.2%
- viability at 1.56 µM ([3]; Homo sapiens): 100%
- viability at 3.125 µM ([3]; Homo sapiens): 96.2%
- viability at 6.25 µM ([3]; Homo sapiens): 72.1%
- viability at 12.5 µM ([3]; Homo sapiens): 54.9%
- viability at 25 µM ([3]; Homo sapiens): 41.8%
- viability at 50 µM ([3]; Homo sapiens): 32.5%
- viability at 100 µM ([3]; Homo sapiens): 20.4%
- IC50 [3, 9]: 19.9 ± 1.5 µM
- viability at 1.56 µM ([4]; Homo sapiens, Conc. 1.56 µM): 100%
- viability at 3.125 µM ([4]; Homo sapiens, Conc. 3.125 µM): 76.8%
- viability at 6.25 µM ([4]; Homo sapiens, Conc. 6.25 µM): 65%
- viability at 12.5 µM ([4]; Homo sapiens, Conc. 12.5 µM): 42.3%
- viability at 25 µM ([4]; Homo sapiens, Conc. 25 µM): 37.2%
- viability at 50 µM ([4]; Homo sapiens, Conc. 50 µM): 24%
- viability at 100 µM ([4]; Homo sapiens, Conc. 100 µM): 15.3%
- IC50 ([4]; Homo sapiens): 12.6 ± 1 µM
- melting point: 136 to 138 °C
- viability at 1.56 µM ([5]; Homo sapiens, HeLa): 100%
- viability at 3.125 µM ([5]; Homo sapiens, HeLa): 96.6%
- viability at 6.25 µM ([5]; Homo sapiens, HeLa): 79.3%
- viability at 12.5 µM ([5]; Homo sapiens, HeLa): 62.9%
- viability at 25 µM ([5]; Homo sapiens, HeLa): 51.4%
- viability at 50 µM ([5]; Homo sapiens, HeLa): 38.1%
- viability at 100 µM ([5]; Homo sapiens, HeLa): 26.3%
- IC50 ([5]; Homo sapiens, HeLa): 28.3 ± 2.2 µM
- viability at 1.56 µM ([6]; Homo sapiens): 100%
- viability at 3.125 µM ([6]; Homo sapiens): 100%
- viability at 6.25 µM ([6]; Homo sapiens): 92.7%
- viability at 12.5 µM ([6]; Homo sapiens): 67.2%
- viability at 25 µM ([6]; Homo sapiens): 58.1%
- viability at 50 µM ([6]; Homo sapiens): 47.8%
- viability at 100 µM ([6]; Homo sapiens): 32.9%
- IC50 ([6]; Homo sapiens): 41.5 ± 2.6 µM

Molecule: C/C(=N\NC(=O)Nc1ccc(Cl)cc1)c1cc2ccccc2o1 [Compound 7, (E)-2-[1-(benzofuran-2-yl)ethylidene]-N-(4-chlorophenyl)hydrazine-1-carboxamide]
- IC50 [1, 8]: > 100 µM
- viability at 1.56 µM [7]: 100%
- viability at 3.125 µM [7]: 100%
- viability at 6.25 µM [7]: 100%
- viability at 12.5 µM [7]: 100%
- viability at 25 µM [7]: 89.3%
- viability at 50 µM [7]: 76.2%
- viability at 100 µM [7]: 55.5%
- anticancer activity towards the four / all assessed cell lines (grade) [2]: weak (51–100 (weak))
- viability at 1.56 µM ([3]; Homo sapiens): 100%
- viability at 3.125 µM ([3]; Homo sapiens): 100%
- viability at 6.25 µM ([3]; Homo sapiens): 97.6%
- viability at 12.5 µM ([3]; Homo sapiens): 88.9%
- viability at 25 µM ([3]; Homo sapiens): 70.2%
- viability at 50 µM ([3]; Homo sapiens): 58%
- viability at 100 µM ([3]; Homo sapiens): 47.8%
- IC50 [3, 9]: 76.9 ± 3.8 µM
- viability at 1.56 µM ([4]; Homo sapiens, Conc. 1.56 µM): 100%
- viability at 3.125 µM ([4]; Homo sapiens, Conc. 3.125 µM): 100%
- viability at 6.25 µM ([4]; Homo sapiens, Conc. 6.25 µM): 99.7%
- viability at 12.5 µM ([4]; Homo sapiens, Conc. 12.5 µM): 87.4%
- viability at 25 µM ([4]; Homo sapiens, Conc. 25 µM): 72.5%
- viability at 50 µM ([4]; Homo sapiens, Conc. 50 µM): 60.2%
- viability at 100 µM ([4]; Homo sapiens, Conc. 100 µM): 48.1%
- IC50 ([4]; Homo sapiens): 81.6 ± 3.9 µM
- melting point: 235 to 237 °C
- viability at 1.56 µM ([5]; Homo sapiens, HeLa): 100%
- viability at 3.125 µM ([5]; Homo sapiens, HeLa): 100%
- viability at 6.25 µM ([5]; Homo sapiens, HeLa): 93.8%
- viability at 12.5 µM ([5]; Homo sapiens, HeLa): 80.7%
- viability at 25 µM ([5]; Homo sapiens, HeLa): 68.4%
- viability at 50 µM ([5]; Homo sapiens, HeLa): 56.3%
- viability at 100 µM ([5]; Homo sapiens, HeLa): 42.9%
- IC50 ([5]; Homo sapiens, HeLa): 66 ± 3.2 µM
- viability at 1.56 µM ([6]; Homo sapiens): 100%
- viability at 3.125 µM ([6]; Homo sapiens): 100%
- viability at 6.25 µM ([6]; Homo sapiens): 100%
- viability at 12.5 µM ([6]; Homo sapiens): 93.6%
- viability at 25 µM ([6]; Homo sapiens): 76.5%
- viability at 50 µM ([6]; Homo sapiens): 64.8%
- viability at 100 µM ([6]; Homo sapiens): 50.9%
- IC50 ([6]; Homo sapiens): 93.9 ± 4.7 µM

Reference: paper PMC9556824, “Design, synthesis and computational study of new benzofuran hybrids as dual PI3K/VEGFR2 inhibitors targeting cancer” (Scientific Reports, 2022)
